# Read-outs that look alike come from different tables or passages of the source.
# How the values were obtained:
# [1] = target: T1, AChE preparations of different rat brain regions (Rattus norvegicus, UniProt P37136); assay: Acetylcholinesterase inhibition in different rat brain regions (in vitro, Ellman); format: biochemical; settings: table 1
# T1 construct: Rat brain tissue is homogenized in cold phosphate buffer pH 7.3; from tissue; host or cells: rat brain (cortex, hippocampus, striatum), supernatant of Triton X-100 homogenate
# T1 sequence (P37136 32-614): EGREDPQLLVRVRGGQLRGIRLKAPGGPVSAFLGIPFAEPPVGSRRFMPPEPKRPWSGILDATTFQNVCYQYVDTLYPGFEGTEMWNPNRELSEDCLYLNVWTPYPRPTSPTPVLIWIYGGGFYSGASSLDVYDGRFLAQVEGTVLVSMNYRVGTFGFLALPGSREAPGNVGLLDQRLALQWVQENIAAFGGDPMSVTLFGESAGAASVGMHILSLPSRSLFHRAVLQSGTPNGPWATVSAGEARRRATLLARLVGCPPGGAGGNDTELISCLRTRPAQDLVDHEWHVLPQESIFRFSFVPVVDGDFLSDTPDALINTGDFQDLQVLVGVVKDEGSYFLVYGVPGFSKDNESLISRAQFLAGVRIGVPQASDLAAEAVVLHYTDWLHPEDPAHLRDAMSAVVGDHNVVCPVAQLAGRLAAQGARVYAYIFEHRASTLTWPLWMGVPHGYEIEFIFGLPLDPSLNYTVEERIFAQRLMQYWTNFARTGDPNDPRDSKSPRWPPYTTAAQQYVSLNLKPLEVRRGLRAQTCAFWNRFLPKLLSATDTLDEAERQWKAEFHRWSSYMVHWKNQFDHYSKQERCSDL
# Experimental: Acetylcholinesterase inhibition in different rat brain regions
# AChE preparations of different rat brain regions (Cortex, hippocampus and striatum) are used in this test and the IC50 (inhibitory concentrations in μM) are determined. The enzyme preparations are preincubated with the inhibitor 15 minutes before the determination.
# (§1) The AChE activity is measured according to the method described by Ellman (Arch. Biochem. Biophys. 82, 70, 1959). Rat brain tissue is homogenized in cold phosphate buffer pH 7.3 (0.25 mM) containing 0.1% of Triton X-100. After centrifugation aliquots of the clear supernatant is used as enzyme source. The enzyme is preincubated with different concentrations of the inhibitor. After different times, substrate (acetylthiocholinjodide 0.5 mM) is added and the remaining activity determined.
# [2] = target: AChE (Rattus norvegicus, UniProt P37136); format: in vivo; design: from tissue; host or cells: male OFA rats: cortex, hippocampus, striatum, pons/medulla, heart, blood; settings: Transdermal 30 μmol/kg
# Sequence of AChE (P37136 32-614): as above
# Experimental: as §1
# The compounds are dissolved in or diluted with n-heptane to a concentration of 1 or 3 mg/20 μl. […] The application place is immediately covered using a thin plastic film and a plaster. The animal has no access to the plaster. Various times after the administration the animals are killed by decapitation and the remaining AChE activity is measured.
# [3] = system: dopamine metabolism in striatum; assay: Influence on dopamine metabolism; format: in vivo, rat
# Experimental: Influence on dopamine metabolism
# Male OFA rats (150-200 g) were used both for acute and subchronic experiments. The animals are maintained under 12 hour periods of light and dark. The animals are sacrificed always between 11.00 and 13.00 h. The brains are excised immediately, dissected on ice according to the method of GLOWINSKI and IVERSEN, J. Neurochem. 13, 655 (1966), frozen on dry ice and the tissue samples stored at -80° C. until analysis.
# Dopamine and its metabolites DOPAC (3,4-dihydroxyphenylacetic acid) and HVA (homovanillic acid) are determined in brain tissue extracts which are obtained by homogenisation of the stored brain tissue samples in 0.1N HCl containing 0.05 mM ascorbic acid and subsequent centrifugation. Striatal and cortical tissues are used.
# The determination of the metabolites is performed using either the gas chromatography/mass fragmentography (GCMS) technique as described by KAROUM et al., J. Neurochem. 25, 653 (1975) and CATABENI et al., Science 178, 166 (1972) or the fluorometric method as described by […] and MAITRE, Analyt. Biochem. 51, 474 (1973). For the GCMS method, tissue extracts are prepared by adding known amounts of deuterated monoamines and their respective metabolites as internal standards.
# [4] = In vitro skin diffusion test (penetration through the skin); format: in vitro ADME; settings: rat skin; listed as compound A
# Excerpt: The penetration through the skin of the compounds for administration according to the invention may be observed in standard in vitro or in vivo tests.
# One in vitro test is the well known diffusion test which may be effected according to the principles set out in GB 2098865 A and by T. J. Franz in J. Invest. Dermatol. (1975) 64, 194-195. Solutions containing the active agent in unlabelled or radioactively labelled form are applied to one side of isolated pieces of intact human skin or hairless rat skin about 2 cm^2 in area. The other side of the skin is in contact with physiological saline. The amount of active agent in the saline is measured in conventional manner, e.g. by HPLC or spectrophotometric techniques, or by determining the radioactivity.
# In this test using rat skin the following penetration rates, for example, have been found: […]
compound,measurement,setting,value
"CCN(C)C(=O)Oc1cccc([C@H](C)N(C)C)c1 [Compound A, (S)-N-ethyl-3-[(1-dimethylamino)ethyl]-N-methyl-phenyl-carbamate]","AChE inhibition in vitro, comparison in words",[1],slightly superior than that with racemate C
same,"AChE activity in % of controls ± SD, Blood",[2]; 0.5 hours after treatment,71.3 ± 12.3 % of controls
same,"AChE activity in % of controls ± SD, Cortex",[2]; 6 hours after treatment,42.4 ± 11.7 % of controls
same,"AChE activity in % of controls ± SD, Striatum",[2]; 6 hours after treatment,65.9 ± 15.5 % of controls
same,"AChE activity in % of controls ± SD, Blood",[2]; 24 hours after treatment,78.1 ± 17.8 % of controls
same,dopamine metabolism in striatum,[3]; following administration,increased
same,"enhancing the striatal dopamine metabolite concentration, comparison","[3]; rat, in vivo",more active than compound B and racemate C
same,penetration rate,[4],23.6±14.9%

# — patent US5602176A, “Phenyl carbamate” (priority 1987, dated 1997)
